“And” between values parts separate entries of the source, which are not always exact repeats. Equal entries are not always repeated.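 How tested: cells in 96-well plates exposed to compound for 48 hours at five concentrations. The concentration for 50% growth inhibition is given as GI50. TGI is the concentration that stops growth completely.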
Experiments:
Test in all cases: inhibition of tumour cell growth, NCI panel, 48 h
[1] = tested on: SK-OV-3 ovarian
[2] = tested on: IGROV1 ovarian
[3] = tested on: UACC-62 melanoma
[4] = tested on: K-562 leukemia
[5] = tested on: SF-295 CNS
[6] = tested on: 786-0 renal
[7] = tested on: HS 578T breast
[8] = tested on: MOLT-4 leukemia
[9] = tested on: A498 renal
[10] = tested on: MDA-MB-435

## Cc1ccc(C(SCC(N)C(=O)O)(c2ccc(C)cc2)c2ccc(C)cc2)cc1 (stereo unspecified)
[1]
  GI50: 1 µM
  TGI: 15.3 µM
[2]
  GI50: 10.3 µM
  TGI: 29.5 µM
[3]
  GI50: 1.03 µM
  TGI: 13.8 µM
[4]
  GI50: 2.96 µM
  TGI: 12.3 µM
[5]
  GI50: 1.29 µM
  TGI: 10.3 µM
[6]
  GI50: 4.93 µM
  TGI: 30.1 µM
[7]
  GI50: 0.669 µM
  TGI: 4.44 µM
[8]
  GI50: 3.81 µM
  TGI: 20.2 µM
[9]
  GI50: 4.04 µM
  TGI: 14.6 µM
[10]
  GI50: 0.337 µM
  TGI: 1.16 µM

## CC(C)(C)C(=O)OCOP(=O)(OCOC(=O)C(C)(C)C)C1CC(O)N(O)C1=O (stereo unspecified)
[1]
  GI50: 25.8 µM
  TGI: > 100 µM
[2]
  GI50: 2.83 µM
  TGI: 9.72 µM
[3]
  GI50: 2.37 µM
  TGI: 7.4 µM
[4]
  GI50: 3.66 µM
  TGI: > 100 µM
[5]
  GI50: 15.7 µM
  TGI: > 100 µM
[6]
  GI50: 3.68 µM
  TGI: > 100 µM
[7]
  GI50: 2.59 µM
  TGI: 7.85 µM
[8]
  GI50: 3.91 µM
  TGI: > 100 µM
[9]
  GI50: 4.36 µM
  TGI: 47.3 µM
[10]
  GI50: 8.15 µM
  TGI: > 100 µM

## CS(=O)(=O)Nc1ccc(-c2cc(-c3ccccc3)cc(C(N)=O)c2N)cc1
[1]
  GI50: > 25 µM
  TGI: > 25 µM
[2]
  GI50: > 25 µM
  TGI: > 25 µM
[3]
  GI50: > 25 µM
  TGI: > 25 µM
[4]
  GI50: 15.8 µM
  TGI: > 25 µM
[5]
  GI50: 24.6 µM
  TGI: > 25 µM
[6]
  GI50: > 25 µM
  TGI: > 25 µM
[7]
  GI50: > 22.4 µM
  TGI: > 25 µM
[8]
  GI50: 19.5 µM
  TGI: > 25 µM
[9]
  GI50: > 20.5 µM
  TGI: > 25 µM
[10]
  GI50: > 25 µM
  TGI: > 25 µM

## O=C1C(=O)c2c(nc3ccc(Br)cn23)-c2ccccc21
[1]
  GI50: 1.71 µM
  TGI: 3.09 µM
[2]
  GI50: 1.05 µM
  TGI: 2.74 µM
[3]
  GI50: 0.365 µM
  TGI: 1.27 µM
[4]
  GI50: 0.244 µM
  TGI: 1.04 µM
[5]
  GI50: 1.61 µM
  TGI: 3.02 µM
[6]
  GI50: 1.85 µM
  TGI: 3.36 µM
[7]
  GI50: 0.438 µM
  TGI: 2.23 µM
[8]
  GI50: 0.447 µM
  TGI: 2.22 µM
[9]
  GI50: 1.51 µM
  TGI: 2.87 µM
[10]
  GI50: 0.185 µM
  TGI: 0.334 µM

## O=C1Nc2c(C(F)(F)F)cccc2[C@@]1(c1ccc(O)cc1)c1ccc(OC(F)(F)F)cc1
[1]
  GI50: 0.0415 µM
  TGI: 0.38 µM
[2]
  GI50: < 0.01 µM
  TGI: 0.0417 µM
[3]
  GI50: 0.0213 µM
  TGI: 0.071 µM
[4]
  GI50: 0.183 µM
  TGI: 20.7 µM
[5]
  GI50: 0.0193 µM
  TGI: 0.0469 µM
[6]
  GI50: 0.0265 µM
  TGI: 1.21 µM
[7]
  GI50: < 0.01 µM
  TGI: < 0.01 µM
[8]
  GI50: 6.51 µM
  TGI: 25.4 µM
[9]
  GI50: < 0.0148 µM
  TGI: 0.0337 µM
[10]
  GI50: 7.92 µM
  TGI: 21.9 µM

## COc1ccc(C(SCC(N)C(=O)O)(c2ccccc2)c2ccccc2)cc1 (stereo unspecified)
[1]
  GI50: 0.19 µM
  TGI: > 100 µM
[2]
  GI50: 0.443 µM
  TGI: > 82.3 µM
[3]
  GI50: 0.171 µM
  TGI: > 56.7 µM
[4]
  GI50: 0.0567 µM
  TGI: > 45.8 µM
[5]
  GI50: 0.0948 µM
  TGI: > 100 µM
[6]
  GI50: 0.209 µM
[7]
  GI50: 0.0432 µM
  TGI: 3.1 µM
[8]
  GI50: 0.439 µM
  TGI: > 100 µM
[9]
  GI50: 20.8 µM
  TGI: > 84.6 µM
[10]
  GI50: 0.0306 µM

## NC1CCC(Nc2nc(NCc3ccc(-c4cccs4)nc3)c3ncn(C4CCCC4)c3n2)CC1 (stereo unspecified)
[1]
  GI50: 0.126 µM
  TGI: 4.28 µM
[2]
  GI50: 0.0363 µM
  TGI: 1.93 µM
[3]
  GI50: 0.087 µM
  TGI: 0.365 µM
[4]
  GI50: 0.0397 µM
  TGI: 0.777 µM
[5]
  GI50: 0.0819 µM
  TGI: 0.699 µM
[6]
  GI50: 0.122 µM
  TGI: 1.12 µM
[7]
  GI50: 0.0269 µM
  TGI: 2.28 µM
[8]
  GI50: 0.025 µM
  TGI: 0.502 µM
[9]
  GI50: 0.0725 µM
  TGI: 0.225 µM
[10]
  GI50: 0.0282 µM
  TGI: 1.08 µM

## Cc1ccc(-c2cc3c(SCC(=O)Nc4cc(C(F)(F)F)ccc4Cl)nccn3n2)cc1
[1]
  GI50: 69.4 µM
  TGI: > 100 µM
[2]
  GI50: > 100 µM
  TGI: > 100 µM
[3]
  GI50: > 100 µM
  TGI: > 100 µM
[4]
  GI50: > 100 µM
  TGI: > 100 µM
[5]
  GI50: > 100 µM
  TGI: > 100 µM
[6]
  GI50: 10.1 µM
  TGI: 87.2 µM
[7]
  GI50: 11.7 µM
  TGI: > 100 µM
[8]
  GI50: > 100 µM
  TGI: > 100 µM
[9]
  GI50: > 100 µM
  TGI: > 100 µM
[10]
  GI50: > 100 µM
  TGI: > 100 µM

## Cc1ccc2ncnc(N(CC(C)C)CC(C)C)c2c1
[1]
  GI50: 14.2 µM
  TGI: 29.7 µM
[2]
  GI50: 23.4 µM
  TGI: > 100 µM
[3]
  GI50: 14.5 µM
  TGI: 32.1 µM
[4]
  GI50: 3.69 µM
  TGI: 21.7 µM
[5]
  GI50: 16.7 µM
  TGI: 32.7 µM
[6]
  GI50: 18.5 µM
  TGI: 40 µM
[7]
  GI50: 17.4 µM
  TGI: 44.3 µM
[8]
  GI50: 7.6 µM
  TGI: 38.4 µM
[9]
  GI50: 13.5 µM
  TGI: 28.2 µM
[10]
  GI50: 18.5 µM
  TGI: 34.7 µM

## CC1=CC(=C(c2ccc(N)cc2)c2ccc(N)cc2)C=CC1=N
[1]
  GI50: 2.44 µM and 4 µM
  TGI: 8.04 µM and 25.2 µM and 17.2 µM
[2]
  GI50: 4.06 µM and 5.72 µM
  TGI: 35.9 µM and > 57.7 µM and 35.1 µM
[3]
  GI50: 1.3 µM and 3.09 µM
  TGI: 5.53 µM and 18.3 µM and 16.1 µM
[4]
  GI50: 0.369 µM
[5]
  GI50: 1.03 µM and 1.32 µM
  TGI: 5.82 µM and 7.65 µM and 6.06 µM
[6]
  GI50: 1.64 µM and 8.26 µM
  TGI: 6.53 µM and 26.1 µM and 31.7 µM
[7]
  GI50: 0.209 µM and 0.841 µM
[8]
  GI50: 1.49 µM
  TGI: 6.77 µM and > 67 µM
[9]
  GI50: 2.2 µM
  TGI: > 27.4 µM and > 100 µM and 32.2 µM
[10]
  GI50: 0.969 µM
  TGI: 10.2 µM and > 44.8 µM and 15.6 µM

## COc1cc(OC)c(/C=C\c2ccnc3ccccc23)c(OC)c1
[1]
  TGI: 20.5 µM
[2]
  TGI: 15.5 µM
[3]
  TGI: 14.6 µM
[4]
  TGI: 2.24 µM
[5]
  TGI: 8.35 µM
[6]
  TGI: 17.8 µM
[7]
  TGI: 12.1 µM
[8]
  TGI: 11.8 µM
[9]
  TGI: 9.87 µM
[10]
  TGI: 1.78 µM

## Cc1cc(O)ccc1C1=NN(c2ccc(S(C)(=O)=O)cc2)C(=O)CC1
[1]
  GI50: 9.77 µM
  TGI: > 100 µM
[2]
  GI50: 7.13 µM
  TGI: > 100 µM
[3]
  GI50: 4 µM
  TGI: > 100 µM
[4]
  GI50: 3.74 µM
  TGI: > 100 µM
[5]
  GI50: 2.87 µM
  TGI: 12.4 µM
[6]
  GI50: 92.5 µM
  TGI: > 100 µM
[7]
  GI50: 4.15 µM
  TGI: > 100 µM
[8]
  GI50: 14.3 µM
  TGI: > 100 µM
[9]
  GI50: 2.78 µM
  TGI: 45.4 µM
[10]
  GI50: 1.28 µM
  TGI: 5.83 µM

## COc1ccc2c(c1)[n+](=O)c(C(=O)c1ccco1)c(C(F)(F)F)n2[O-]
[1]
  GI50: 3.15 µM
  TGI: 25.9 µM
[2]
  GI50: 2.57 µM
  TGI: 20.4 µM
[3]
  GI50: 1.75 µM
  TGI: 4.91 µM
[4]
  GI50: 5.24 µM
  TGI: > 100 µM
[5]
  GI50: 2.79 µM
  TGI: 14.7 µM
[6]
  GI50: 3.83 µM
  TGI: 54.1 µM
[7]
  GI50: 3.08 µM
  TGI: 8.86 µM
[8]
  GI50: > 100 µM
  TGI: > 100 µM
[9]
  GI50: 3.98 µM
  TGI: 16 µM
[10]
  GI50: 3.08 µM
  TGI: 14.5 µM

Reference: PubChem BioAssay (NCI)
